{"source": "patent US20050142169A1", "about": "“Palatability enhanced composition and method for animal consumption” (priority 2003, published 2005)", "test_system": "cats", "experiment": "two-bowl preference test, Example 7 (Feline w/d)", "format": "in vivo, cat", "conditions": "dry wt. of kibble", "source_text": "Finally, a commercial dry palatant enhancer (1.4% dry weight basis) was topically applied to the dry kibbles to complete the test composition.", "key": {"[1]": {"conditions": "Exp. No. 1, second set of experiments, 5 ppm"}, "[2]": {"conditions": "Exp. No. 2, second set of experiments, 20 ppm"}}}
{"smiles": "CCC1OC(C)=C(O)C1=O", "note": "(stereo not shown) [5-methyl-2-ethyl-4-hydroxy-3(2H)-furanone]", "values": [{"measurement": "Intake Ratio", "setting": "Exp. No. 1, 5 ppm", "result": 0.8254}, {"measurement": "Preference (%) control composition", "setting": "Exp. No. 1, 5 ppm", "result": 12.0, "unit": "%"}, {"measurement": "Preference (%) test composition", "setting": "Exp. No. 1, 5 ppm", "result": 88.0, "unit": "%"}, {"measurement": "Status (vs. control)", "setting": "Exp. No. 1, 5 ppm", "result": "Win"}, {"measurement": "Intake Ratio", "setting": "[1]", "result": 0.7476}, {"measurement": "Preference (%) control composition", "setting": "[1]", "result": 21.7, "unit": "%"}, {"measurement": "Preference (%) test composition", "setting": "[1]", "result": 78.3, "unit": "%"}, {"measurement": "Status (vs. control)", "setting": "[1]", "result": "Win"}, {"measurement": "Intake Ratio", "setting": "Exp. No. 2, 20 ppm", "result": 0.9731}, {"measurement": "Preference (%) control composition", "setting": "Exp. No. 2, 20 ppm", "result": 0.0, "unit": "%"}, {"measurement": "Preference (%) test composition", "setting": "Exp. No. 2, 20 ppm", "result": 100.0, "unit": "%"}, {"measurement": "Status (vs. control)", "setting": "Exp. No. 2, 20 ppm", "result": "Win"}, {"measurement": "Intake Ratio", "setting": "[2]", "result": 0.8679}, {"measurement": "Preference (%) control composition", "setting": "[2]", "result": 8.0, "unit": "%"}, {"measurement": "Preference (%) test composition", "setting": "[2]", "result": 92.0, "unit": "%"}, {"measurement": "Status (vs. control)", "setting": "[2]", "result": "Win"}]}
